*1 amine or outer side, *2 acyl side, *3 side chain or, on linkers, in order; H or OH if unused. Where a SMILES comes first, the peptide text is derived from it. Side-chain parts run from the residue outwards. The star is where a group is joined. γGlu = O=C(O)[C@H](CCC(=O)[*:2])N[*:1]; Palmitoyl = CCCCCCCCCCCCCCCC(=O)*
Key:
[1] = tested on: U343 glioma cells; test: U343 CDX mouse model; assay type: in vivo; conditions: intravenous injection every 2 or 3 days from day 14
Protocol: Animal experiments were conducted in accordance with ethical guidelines, and all protocols were approved by the Institutional Animal Care and Use Committee under Hanyang University (approval numbers, 2014‐0016A, 2018‐0049A, 2018‐0207A, and 2019‐0169A), Chung‐Ang University (approval number, 2015‐00022), Chungbuk University (approval number, CBNUA‐1072‐17‐02), and Konkuk University (approval number, KU17130). To establish xenograft mice models, Hep3B, A431, U343, and PC9 cells were subcutaneously injected into the flank of Balb/c nude mice. For the MDA‐MB‐231 (LM1) cell line, it was implanted into the mammary fat pad of immunodeficient mice (NPG mice). […] Tumor volume was calculated using the formula of length × width^2)/2. […] The in vivo administration amount was determined based on the concentration of ACP52C confirmed at the cellular level, which was 2 µM. […] For ACP52C derivatives, the amount was adjusted to ensure a similar molar quantity of peptide injection, taking their molecular weights into account. For instance, in the case of ACP52CGK, ≈1.67 times the quantity was used compared to ACP52C to achieve an equivalent molar quantity. […] Hematoxylin and eosin (H&E)‐stained tissue sections were analyzed and photographed, and the representative histological images were recorded. […]

[2] = tested on: ACP52C‐resistant cancer cell lines; test: Growth inhibition of resistant cells with CASP2 inhibition; assay type: cell-based, human; conditions: combined with CASP2 inhibiting peptide Ac‐VDVAD‐CHO (10 µM)
Protocol: Various cell lines were treated with peptides, either alone or in combination with the CASP2 inhibitor (Ac‐VDVAD‐CHO; Enzo ALX‐260‐058‐M001) at various concentrations for 4 days. Cell viability was assessed on day 2 or day 4 using MTT (3‐(4,5‐dimethylthiazol‐2‐yl)‐2,5‐diphenyltetrazolium bromide; Sigma–Aldrich, M2128) assay. In brief, fresh cells were seeded in flat‐bottomed 96‐well tissue culture plates at appropriate concentrations for each cell line per well using complete culture medium. The cells were incubated in 100 µL of culture medium containing various concentration of chemicals or peptides at 37 °C for 0 to 96 h. A solution of MTT (5 mg mL^−1) was added to the culture medium, and the cells were further incubated at 37 °C for an additional 3 h. The MTT medium was then removed, and the formazan crystals were dissolved in DMSO (100 µL per well). The formazan concentration was measured spectrophotometrically at 490 nm using a Varioskan Flash Spectral Scanning Multimode Reader (Thermo Scientific Korea). Nonlinear regression curves for growth inhibition and GI50 values for each cell line were estimated from independent replicates using the Prism (version 6) software (GraphPad Software Inc.)

[3] = In vivo metabolic stability test by live imaging; design: species or system mouse; conditions: Hep3B CDX Balb/c nude mice, intravenous Cy5‐ACP52C 17 mg kg^−1, live imaging fluorescence over 24 h
Source text: (1 picture or pasted object on this page, not shown here)
Scale bar represents 10 μm.

[4] = Solubility of peptides; assay type: physicochemical
Source text: The peptides listed in Table S3 (Supporting Information) were synthesized by either ANYGEN (Kwangju, Korea) or PepMic (Suzhou, China) and achieved purity of over 95%. These peptides were synthesized using the Solid‐phase method based on the Fmoc strategy, using an Applied Biosystems 431A peptide synthesizer on a 0.25‐mmol scale. To enhance the stability of ACP52C, saturated C16 palmitic acid, DHA, and E‐pal were utilized. These fatty acids were linked to the lysine (K) residue at the N‐terminal of ACP52C or within the ACP52 and iRGD region through a covalent bond formed between the εK NH3+ and αE or γE COO‐ groups. After synthesis, the final product was prepared through lyophilization and appeared as a white amorphous powder for both ACP52C and its derivatives. To confirm their quality, the purity and molecular weight of the final product were evaluated using amino acid analysis, analytical RP‐HPLC, and MALDI‐MS. […] FQI1, Sorafenib, and cisplatin were purchased from Sigma–Aldrich (SML0413, SML2653) or Selleckchem (S1166), respectively.
Figure S21. […]
A) A schematic representation depicting the structural diagrams, molecular weights, and minimum solubilities (in water or saline) of ACP52C and its derivatives. […] Tumor weight in the sacrificed mice after completion of drug administration schedule was expressed as means ± SE. […]

[5] = In vivo pharmacokinetics test; conditions: plasma; male CD‐1 (ICR) mouse, single intravenous 5 mg kg^−1, sampled 0.033–48 h, peripheral blood, noncompartmental analysis (Phoenix WinNonlin 6.3)
Protocol: A pharmacokinetics study was conducted at WuXiAppTec., Ltd. In this study, male CD‐1 (ICR) mouse was given a single intravenous injection of 5 mg kg^−1 of ACP52CGK. Blood samples were collected prior to dosing on day 0 and at various time points, including 0.033, 0.083, 0.25, 0.5, 1, 2, 6, 12, 24, and 48 h after dosing. The data collected from these samples were used to calculate pharmacokinetic parameters using the IV‐noncompartmental analysis model 201 in Phoenix WinNonlin version 6.3.
Figure S23. Pharmacokinetics analysis of ACP52CGK
A) PK parameters of ACP52CGK in CD-1(ICR) mice, calculated using the noncompartmental analysis
model 201 of Phoenix WinNonlin version 6.3. B) Mean plasma concentration of ACP52CGK at 0.033,

[6] = tested on: normal cells such as mesenchymal stem cells and embryonic stem cells; test: Cell death in normal cells; assay type: cell-based, human
Protocol: performance of FQI1. Two micromoles of each Pep #5-2C and FQI1 were added to the cell culture for 2 days. Fractions of benzidine-positive stained cells were counted in MEL cells (n > 100 cells/group) treated with HMBA for 2 days. Hba-a2 gene expression at mRNA and protein levels were estimated by RT-qPCR […]
and WB, respectively. […] ANOVA […]
similar performance of Pep #5 or Pep #5-2. DNA-pull down assays for the [C4] complex (B) and the CBP […]
complexes (C). […] Two-tailed […]
formation by itself, surpassing the performance of FQI1. Co-IP assays for the [C4] complex (D) and the […]
CBP complexes (E). […] Student’s […]
than FQI1. G) Cell growth inhibition plots and GI50 values of FQI1 and ACP52C in various cancer cell lines and normal cells over peptide dose. GI50 values estimated from two independent biological replicates. […]
hESCs were cultured on the Rhodamine -labeled MEF cells. Ten micromoles of each ACP52C and FQI1 were added to the cell culture for 3 days before capturing images of cultures.

CC(=O)N[C@@H](CC(N)=O)C(=O)N[C@@H](Cc1ccc(O)cc1)C(=O)N1CCC[C@H]1C(=O)N[C@@H](CCC(N)=O)C(=O)N[C@@H](CCCNC(=N)N)C(=O)N1CCC[C@H]1C(=O)N[C@@H](CS)C(=O)N[C@@H](CCCNC(=N)N)C(=O)NCC(=O)N[C@@H](CC(=O)O)C(=O)N[C@@H](CCCCN)C(=O)NCC(=O)N1CCC[C@H]1C(=O)N[C@@H](CC(=O)O)C(=O)N[C@@H](CS)C(N)=O [ACP52C] (Ac-NYPQRPCRGDKGPDC-NH2)
tumor weight [1]: significantly reduced tumor weight | sensitization by combined treatment [2]: sensitized ACP52C‐resistant cancer cell lines | systemic metabolic stability in vivo (RL50, time for 50% retention of fluorescence) [3]: ≈ 7.8 h

CCCCCCCCCCCCCCCC(=O)N[C@@H](CCC(=O)NCCCC[C@H](NC(=O)CNC(=O)CNC(=O)[C@@H]1CCCN1C(=O)[C@H](CCCNC(=N)N)NC(=O)[C@H](CCC(N)=O)NC(=O)[C@@H]1CCCN1C(=O)[C@H](Cc1ccc(O)cc1)NC(=O)[C@H](CC(N)=O)NC(C)=O)C(=O)NCC(=O)NCC(=O)N[C@@H](CS)C(=O)N[C@@H](CCCNC(=N)N)C(=O)NCC(=O)N[C@@H](CC(=O)O)C(=O)N[C@@H](CCCCN)C(=O)NCC(=O)N1CCC[C@H]1C(=O)N[C@@H](CC(=O)O)C(=O)N[C@@H](CS)C(N)=O)C(=O)O [ACP52CGK] (Ac-NYPQRPGGK([γGlu-Palmitoyl])GGCRGDKGPDC-NH2)
concentration at which completely dissolved [4]: ≥ 100000 µg/mL | half-life [5]: ~5.26 h

CCOc1ccccc1C1CC(=O)Nc2cc3c(cc21)OCO3 (stereo not drawn) [FQI1, Factor Quinolinone Inhibitor 1, reference compound]
induction of cell death in normal cells [6]: potential to induce cell death
